Consider eight molecules from patent publication US20250353827A1, “INDOLINE DERIVATIVES AS SEROTONERGIC AGENTS USEFUL FOR THE TREATMENT OF DISORDERS RELATED THERETO” (MINDSET PHARMA INC., priority 2022, published 2025).

One data set relates to Male, C57BL/6J mice. Kind of data set: Mouse head twitch. Type of data set: in vivo. The conditions noted are these: for head twitches (mean): counted over 1 hr, male C57BL/6J mice; for other behavioural signs (locomotion, core body temperature, 5-HT syndrome) in words: psilocybin 3 and 10 mg/kg, 5-MeO DMT 3-30 mg/kg, II-1 0.3-30 mg/kg. The method, then:
The effect of different doses of representative compounds of Formula I were evaluated on head-twitch response (HTR) and other behavioural responses as behavior-based models of psychedelic activity.
Male, C57BL/6J mice (body weight range 20-30 g) were dosed with the appropriate dose of test article, and following a 1-minute pre-treatment time, placed in individual observation chambers. Animals were visually assessed for the incidence head twitches continuously over a 1 hr period. Head twitches were defined as a rapid jerk of the head which was not elicited by an external tactile stimulus (Come and Pickering, Psychopharmacologia, 1967, 11(1): 65-78). Each head twitch was individually counted by a trained observer, and the data was expressed as the mean±SEM of 6-10 mice per group. Mice were used in a single experiment only.
The head twitch response of exemplary compound II-1 (1-30 mg/kg SC) was compared to 5-MeO DMT and psilocybin (FIG. 1, Table 6).

The target in data set [1] is T1, human 5-HT2A (h5-HT2A) receptor (Homo sapiens, UniProt P28223).
T1 construct: expressed in transfected cells; cultured under G418 and hygromycin B selection
As to the kind of experiment: FLIPR assay, human 5-HT2A receptor under agonist mode. Type of data set: cell-based. The conditions noted are these: for RFU@10 μM: RFU=Fmax−Fmin. The method, then: I. Assessment of the Effect of Exemplary Compounds of Formula I Targeting on Human 5-HT2A (h5-HT2A) Receptor Under Agonist Mode
• 1. Cells were cultured in cell culture medium (DMEM containing 10% FBS, 1×penicillin-streptomycin 300 μg/ml G418 and 100 μg/ml hygromycin B) at 37° C., 5% (v/v) CO2. • 2. One day before the assays, the cells were detached using TrypLE™ Express and cells were counted using cell counter. Only cells with >85% viability were used for the assay. • 3. 20000 cells/well were seeded in 30 μl/well culture medium to a 384-well cell plate and cells were incubated overnight at 37° C., 5% (v/v) CO2. • 4. On the assay day, 2×dye solution was prepared following the manual of the FLIPR® Calcium 6 Assay Kit: i. The dye was diluted with assay buffer (20 mM HEPES in 1× HBSS, PH7.4); ii. Probenecid was added to the final concentration of 5 mM; iii. Vortex vigorously for 1-2 minutes. • 5. Medium was removed from cell plate by flicking the cell plate on towel papers. • 6. 10 μl of assay buffer and 10 μl of 2×dye solution was added to each well of the cell plate. • 7. The cell plate was placed on plate shaker, the plate was agitated at 600 rpm for 2 minutes. The plate was incubated at 37° C. for 2 hours followed by additional 15-minute incubation at 25° C. • 8. 3×compound in assay buffer was prepared: a. Reference compounds were diluted to required concentration with DMSO. The compounds were added to a 384-well compound plate; b. Serial dilutions were performed; c. 10 mM test compounds were added to the compound plate, and 3-fold serial dilutions were performed. d. Transfer 60 nl/well of compounds from source plate to a 384-well compound plate (Corning, 3657) by using an Echo; e. Add 20 μl/well assay buffer to the compound plate; f. Mix the plate on plate shaker for 2 mins; • 9. The cell plate, compound plate and tips were put into FLIPR, 10 μl of 3× compound was transferred to the cell plate per well with FLIPR.
• i. The normalized fluorescence reading (RFU) was calculated as shown below, where Fmax and Fmin stand for maximum and minimum of calcium signal during defined time window: RFU=Fmax−Fmin. • ii. Calculate the percentage activation using following equation:
[formula] • Iii. Calculate EC50 by fitting % activation against log of compound concentrations with Hill equation using XLfit.
Exemplary compounds of Formula I were evaluated functionally using FLIPR assay for their effect on h5-HT2A receptor under agonist mode.

A short description of data set [2]: Liver microsomes stability, human. The note with it: for Predicted hepatic CL: human liver microsomes. The procedure: (§1) The objective of this study was to estimate in vitro metabolic stability of representative compounds of the application in pooled human and male mouse liver microsomes. The concentrations of parent compounds in reaction systems were evaluated by LC-MS/MS for estimating the stability in pooled human and male mouse liver microsomes. The in vitro intrinsic clearances of test compounds were determined as well.
(§2) A master solution in the “Incubation Plate” containing phosphate buffer, ultra-pure H2O, MgCl2 solution and liver microsomes was made according to Table 3. The mixture was pre-warmed at 37° C. water bath for 5 minutes.
(§3) 40 μL of 10 mM NADPH solution was added to each well. The final concentration of NADPH was 1 mM. The negative control samples were prepared by replacing NADPH with 40 μL of ultra-pure H2O. Samples were prepared in duplicate. Negative controls were prepared in singlet.
(§4) The reaction was started with the addition of 4 μL of 200 μM test compounds or control compounds to each master solution to get the final concentration of 2 μM. This study was performed in duplicate.
(§5) Aliquots of 50 μL were taken from the reaction solution at 0, 15, 30, 45 and 60 minutes. The reaction solutions were stopped by the addition of 4 volumes of cold methanol with IS (100 nM alprazolam, 200 nM imipramine, 200 nM labetalol and 2 μM ketoprofen). Samples were centrifuged at 3,220 g for 40 minutes. Aliquot of 90 μL of the supernatant was mixed with 90 μL of ultra-pure H2O and then was used for LC-MS/MS analysis.
(§6) LC/MS analysis was performed for all samples from this study using a Shimadzu liquid chromatograph separation system equipped with degasser DGU-20A5R; solvent delivery unit LC-30AD; system controller SIL-30AC; column oven CTO-30A; CTC Analytics HTC PAL System. Mass spectrometric analysis was performed using a Triple Quad™ 5500 instrument.
(§7) All calculations were carried out using Microsoft Excel. Peak areas were determined from extracted ion chromatograms. The slope value, k, was determined by linear regression of the natural logarithm of the remaining percentage of the parent drug vs. incubation time curve.
(§8) The in vitro half-life (in vitro t1/2) was determined from the slope value:
(§9) Conversion of the in vitro t1/2 (min) into the in vitro intrinsic clearance (in vitro CLint, in μL/min/mg proteins) was done using the following equation (mean of duplicate determinations): […]

The nature of data set [3]: Liver microsomes stability, mouse. The method, then:
as §1, §2, §3, §4, §5, §6, §7, §8, §9

Data set [4] can be described thus: Liver microsomes stability, rat.

Where “and” joins values, the source holds several entries; their conditions need not be identical. Equal entries are not always repeated. Where two headings read alike, the source gives them in different places.

T1 sequence (P28223 whole entry): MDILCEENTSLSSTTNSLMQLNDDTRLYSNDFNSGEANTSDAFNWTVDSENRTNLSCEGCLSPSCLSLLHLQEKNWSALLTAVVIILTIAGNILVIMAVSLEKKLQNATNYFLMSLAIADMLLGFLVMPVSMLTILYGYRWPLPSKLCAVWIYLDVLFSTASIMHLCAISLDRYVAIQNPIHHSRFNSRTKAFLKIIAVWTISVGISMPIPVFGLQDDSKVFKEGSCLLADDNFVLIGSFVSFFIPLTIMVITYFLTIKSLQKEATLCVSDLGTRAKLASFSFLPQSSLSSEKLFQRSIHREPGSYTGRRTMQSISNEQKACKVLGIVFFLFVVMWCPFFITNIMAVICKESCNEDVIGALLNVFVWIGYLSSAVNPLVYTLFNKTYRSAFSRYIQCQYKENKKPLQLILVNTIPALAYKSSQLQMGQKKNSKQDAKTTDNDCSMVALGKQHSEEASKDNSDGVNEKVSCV

`COc1ccc2[nH]cc(CCN(C)C)c2c1` [5-MeO DMT]: the “head twitches (mean)” value in the data set with Male, C57BL/6J mice (1 mg/kg SC) was 3.0; in the data set on Male, C57BL/6J mice (3 mg/kg SC), 4.2; in the data set with Male, C57BL/6J mice (10 mg/kg SC), 7.8; in the data set on Male, C57BL/6J mice (30 mg/kg SC), 12.3. Further, the “head twitch response (in words)” value with Male, C57BL/6J mice (SC, dose range as in the sentence) is “monotonic increase in head twitches”. Further, in the data set on Male, C57BL/6J mice (SC), the “other behavioural signs (locomotion, core body temperature, 5-HT syndrome) in words” value is given as “behavioural signs associated with 5-HT syndrome”.
As to `CN(C)CCC1CNc2ccc(F)cc21` (centres unmarked) [Compound I-2, 2-(5-Fluoroindolin-3-yl)-N,N-dimethylethan-1-amine], in data set [1] (5-HT2A (FLIPR)), the “RFU@10 μM” value was 622. Also, the EC50 – broadly, the concentration giving half of the maximal effect – in data set [1] (5-HT2A (FLIPR), read-out: EC50) is 107 nM. Moreover, the “Predicted hepatic CL” value is given as 1.73 mL/min/kg in data set [2]; 57.99 mL/min/kg in data set [3] (mouse liver microsomes); 43.15 mL/min/kg in data set [4] (rat, liver microsomes). The “Remaining Percentage” value stood at 100.00% in data set [2] (human, With NADPH, 0 min); 111.62% in data set [2] (human, With NADPH, 30 min); 95.59% in data set [2] (human, With NADPH, 60 min); 100.00% in data set [2] (human, Without NADPH, 0 min); 115.22% in data set [2] (human, Without NADPH, 30 min); 108.70% in data set [2] (human, Without NADPH, 60 min). Moreover, the “Remaining Percentage” value is 100.00% in data set [3] (mouse, With NADPH, 0 min); 56.32% in data set [3] (mouse, With NADPH, 30 min); 32.69% in data set [3] (mouse, With NADPH, 60 min); 100.00% in data set [3] (mouse, Without NADPH, 0 min); 108.70% in data set [3] (mouse, Without NADPH, 30 min); 97.83% in data set [3] (mouse, Without NADPH, 60 min). Further, the “Remaining Percentage” value in data set [4] (rat, With NADPH, 0 min) is 100.00%; in data set [4] (rat, With NADPH, 30 min), 14.82%; in data set [4] (rat, With NADPH, 60 min) it was 3.66%; in data set [4] (rat, Without NADPH, 0 min), 100.00%; in data set [4] (rat, Without NADPH, 30 min), 106.67%; in data set [4] (rat, Without NADPH, 60 min) it was 104.17%. For the same molecule, the CLint scaled (commonly a measure of how fast metabolising enzymes remove a compound, apart from limits set by blood flow) at 2 μM in data set [2] (human, pooled liver microsomes) stood at 1.89 mL/min/kg; in data set [3] (male, mouse, microsomes), 163 mL/min/kg; in data set [4] (rat, liver microsomes), 198 mL/min/kg. The half-life (in general, the time needed for the level to fall by half in the phase considered) at 2 μM in data set [2] (human, pooled liver microsomes) turned out to be 921 min; in data set [3] (male, mouse, microsomes), 37.2 min; in data set [4] (rat, liver microsomes), 12.6 min. The microsomal CLint – broadly, a measure of how fast metabolising enzymes remove a compound, apart from limits set by blood flow – at 2 μM turned out to be 1.5 µL/min/mg in data set [2] (human, pooled liver microsomes); 37.3 µL/min/mg in data set [3] (male, mouse, microsomes); 110 µL/min/mg in data set [4] (rat, liver microsomes).
Take `COc1ccc2c(c1)C(CCN(C)C)CN2C` (centres unmarked) [Compound I-3, 2-(5-Methoxy-1-methylindolin-3-yl)-N,N-dimethylethan-1-amine]: the “RFU@10 μM” value in data set [1] (5-HT2A (FLIPR)) was 1014. For the same molecule, the EC50 in data set [1] (5-HT2A (FLIPR), read-out: EC50) was 404 nM.
Take `COc1cc2c(cc1OC)C(CCN(C)C)CN2` (centres unmarked) [Compound I-33, 2-(5,6-Dimethoxyindolin-3-yl)-N,N-dimethylethan-1-amine]: in data set [1] (5-HT2A (FLIPR)), the “RFU@10 μM” value was 286.
For `CN(C)CCc1c[nH]c2ccccc12` [DMT, N,N-dimethyltryptamine, reference compound], the “RFU@10 μM” value in data set [1] (5-HT2A (FLIPR)) is reported as 381. The molecule further gave an EC50 in data set [1] (EC50, 5-HT2A (FLIPR)) of 364 nM.
As to `O=C(O)Cc1ccccc1Nc1c(Cl)cccc1Cl` [Diclofenac], the “Predicted hepatic CL” value in data set [2] was 18.43 mL/min/kg; in data set [3] (mouse liver microsomes) it was 54.52 mL/min/kg; in data set [4] (rat, liver microsomes) it was 41.66 mL/min/kg. Moreover, the “Remaining Percentage” value stood at 100.00% in data set [2] (human, With NADPH, 0 min); 4.80% in data set [2] (human, With NADPH, 30 min); 1.80% in data set [2] (human, With NADPH, 60 min); 100.00% in data set [2] (human, Without NADPH, 0 min); 91.86% in data set [2] (human, Without NADPH, 30 min); 91.86% in data set [2] (human, Without NADPH, 60 min). Also, the “Remaining Percentage” value in data set [3] (mouse, With NADPH, 0 min) amounted to 100.00%; in data set [3] (mouse, With NADPH, 30 min), 51.50%; in data set [3] (mouse, With NADPH, 60 min) it was 38.74%; in data set [3] (mouse, Without NADPH, 0 min) it was 100.00%; in data set [3] (mouse, Without NADPH, 30 min), 105.81%; in data set [3] (mouse, Without NADPH, 60 min) it was 102.49%. Also, the “Remaining Percentage” value came out at 100.00% in data set [4] (rat, With NADPH, 0 min); 10.72% in data set [4] (rat, With NADPH, 30 min); 5.82% in data set [4] (rat, With NADPH, 60 min); 100.00% in data set [4] (rat, Without NADPH, 0 min); 100.00% in data set [4] (rat, Without NADPH, 30 min); 96.90% in data set [4] (rat, Without NADPH, 60 min). This molecule also had a half-life at 2 μM in data set [3] (male, mouse, microsomes) of 43.9 min. In addition, the microsomal CLint at 2 μM was 31.6 µL/min/mg in data set [3] (male, mouse, microsomes) and 94.8 µL/min/mg in data set [4] (rat, liver microsomes). The “Scaled-up CLint” value in data set [3] (mouse liver microsomes) was found to be 138.28 mL/min/kg. Besides, the T1/2 in data set [4] (rat liver microsomes, 2 μM, 0.5 mg/mL) was determined as 14.62 min.
Turning to `CN(C)CCc1c[nH]c2cccc(O)c12` [Psilocin, psilocin, reference compound], the “RFU@10 μM” value in data set [1] (5-HT2A (FLIPR)) is 416 and 308.
Consider `CN(C)CCc1c[nH]c2cccc(OP(=O)(O)O)c12` [psilocybin], for which the “head twitches (mean)” value was 4.8 with Male, C57BL/6J mice (0.1 mg/kg SC); 6.3 in the data set on Male, C57BL/6J mice (0.3 mg/kg SC); 16.3 in the data set with Male, C57BL/6J mice (1 mg/kg SC); 7.8 in the data set on Male, C57BL/6J mice (3 mg/kg SC); 5.5 with Male, C57BL/6J mice (10 mg/kg SC). For the same molecule, the “dose at which head twitch response reached a peak” value with Male, C57BL/6J mice (SC, 0.1-10 mg/kg tested) is given as 1 mg/kg. In addition, the “other behavioural signs (locomotion, core body temperature, 5-HT syndrome) in words” value in the data set on Male, C57BL/6J mice (SC) was “decreased locomotion and decreased core body temperature”.
